According to patent US10307413B2, “Tetrahydro- and dihydro-isoquinoline PRMT5 inhibitors and uses thereof” (Epizyme, Inc., priority 2013, dated 2019):

Experiments:
[1] = tested on: symmetric di-methyl arginine in Z-138 cells; assay: Z-138 Methylation Assay (In Cell Western for symmetric di-methyl arginine and DNA content); type: cell-based; conditions: Homo sapiens, read-out: ICW EC50
Procedure, shortened: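 In-cell western: symmetric di-methyl arginine signal ratioed to DRAQ5 DNA content after 96 h compound exposure of Z-138 cells seeded at 50,000 cells/mL.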

Z-138 cell line = assay: Z-138 Proliferation Assay (Cell Titer Glo, 5 days); type: cell-based; conditions: Homo sapiens, 120 h; Z-138 cells, 5 days; read-out: Proliferation EC50
Procedure, shortened: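 Viability via CellTiter-Glo luminescence (ATP) after 5-day incubation at 37 °C, 5% CO2. Compounds tested in triplicate, nine 3-fold steps, highest final concentration 20 μM in 0.2% DMSO; 50% inhibitory concentration by 4-parameter fit of normalized curves.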

Compound | EC50 [1] [nM] | EC50 (Z-138 cell line) [nM]
O=C(NCC(O)CN1CCc2ccccc2C1)c1ccn[nH]1 (stereo not shown) [Compound 148] | 1000 to 10000 | > 20000
O=C(NCC(O)CN1CCc2ccccc2C1)c1ccc2c(c1)OCCN2 (stereo not shown) [Compound 88] | 101 to 1000 | > 20000
O=C(NCC(O)CN1CCc2ccccc2C1)c1cccc(C2CCNC2)c1 (stereo not shown) [Compound 37] | 101 to 1000 | > 20000
O=C(NC[C@H](O)CN1CCc2ccccc2C1)c1ccnc(NC2CCNC2)c1 (stereo partly shown) [Compound 201] | 101 to 1000 | 1000 to 10000
CN1CCC(Nc2cccc(C(=O)NCC(O)CN3CCc4ccccc4C3)c2)CC1 (stereo not shown) [Compound 123] | 101 to 1000 | 1000 to 10000
NC(=O)CCCN1CCN(Cc2cccc(C(=O)NCC(O)CN3CCc4ccccc4C3)c2)CC1 (stereo not shown) [Compound 159] | 101 to 1000 | 1000 to 10000
CN(C[C@H](O)CN1CCc2ccccc2C1)C(=O)c1cc(NC2CCOCC2)ncn1 [Compound 232] | 101 to 1000 | 1000 to 10000
O=C(NCC(O)CN1CCc2ccccc2C1)c1cccc(CO)c1 (stereo not shown) [Compound 151] | 101 to 1000 | > 20000
Cn1ccnc1C(=O)NCC(O)CN1CCc2ccccc2C1 (stereo not shown) [Compound 171] | 101 to 1000 | 1000 to 10000
Cc1ccc2cc(C(=O)NC[C@@H](O)CN3CCc4ccccc4C3)ccc2n1 [Compound 219, (R)—N-(3-(3,4-dihydroisoquinolin-2(1H)-yl)-2-hydroxypropyl)-2-methylquinoline-6-carboxamide] | 101 to 1000 | 10000 to 50000
O=C(NC[C@H](O)CN1CCc2ccccc2C1)c1ccc2ncsc2c1 [Compound 273] | 101 to 1000 | 1000 to 10000
O=C(NCC(O)CN1CCc2ccccc2C1)c1cn[nH]c1-c1ccccc1 (stereo not shown) [Compound 112] | 1000 to 10000 | > 20000
O=C(NC[C@H](O)CN1CCc2ccccc2C1)c1ccnc(NCC2CNCCO2)c1 (stereo partly shown) [Compound 238] | 101 to 1000 | 10000 to 50000
O=C(NCC(O)CN1CCc2ccccc2C1)c1cccc(NC2CCOCC2O)c1 (stereo not shown) [Compound 98] | 101 to 1000 | 1000 to 10000
O=C(NCC(O)CN1CCc2ccccc2C1)c1cc(Cl)cc(NC2CCOCC2)c1 (stereo not shown) [Compound 64] | 101 to 1000 | 1000 to 10000
Cc1cnc(NC2CCOC2)cc1C(=O)NC[C@H](O)CN1CCc2ccccc2C1 (stereo partly shown) [Compound 308] | 101 to 1000 | 10000 to 50000
COCCCOc1ccc(C(=O)NCC(O)CN2CCc3ccccc3C2)cc1 (stereo not shown) [Compound 146] | < 100 | 1000 to 10000
O=C(NC[C@H](O)CN1CCc2ccccc2C1)c1cc2ccccc2[nH]1 [Compound 269] | < 100 | 1000 to 10000
O=C(NCC(O)CN1CCc2ccccc2C1)c1cccc(-c2ccccn2)c1 (stereo not shown) [Compound 1, N-(3-(3,4-dihydroisoquinolin-2(1H)-yl)-2-hydroxypropyl)-3-(pyridin-2-yl)benzamide] | < 100 | 1000 to 10000
CC(=O)N(C)CCN1CCN(Cc2cccc(C(=O)NCC(O)CN3CCc4ccccc4C3)c2)CC1 (stereo not shown) [Compound 252] | 101 to 1000 | 1000 to 10000
CC(C)N1CCC(Oc2cccc(C(=O)NCC(O)CN3CCc4ccccc4C3)c2)C1 (stereo not shown) [Compound 135] | < 100 | 10000 to 50000

Compound | EC50 [1] [nM] | EC50 (Z-138 cell line) [nM]
CN1CCC(CNc2cc(C(=O)NC[C@H](O)CN3CCc4ccccc4C3)ccn2)CC1 [Compound 292] | < 100 | 101 to 1000
CC(C)N1CCC(Nc2ccc(C(=O)NCC(O)CN3CCc4ccccc4C3)cc2)CC1 (stereo not shown) [Compound 140] | < 100 | 1000 to 10000
CCN1CCN(Cc2cccc(C(=O)NCC(O)CN3CCc4ccccc4C3)c2)CC1 (stereo not shown) [Compound 90] | 101 to 1000 | 10000 to 50000
CN(C)CCN(C)c1cc(C(=O)NC[C@H](O)CN2CCc3ccccc3C2)ccn1 [Compound 186] | < 100 | 1000 to 10000
CS(=O)(=O)N1CCC(Nc2cncc(C(=O)NC[C@H](O)CN3CCc4ccccc4C3)c2)CC1 [Compound 301] | < 100 | 101 to 1000
O=C(NC[C@@H](O)CN1CCc2ccccc2C1)c1cc(NC2COC2)ncn1 [Compound 336] | 101 to 1000 | 10000 to 50000
CC(C)N1CCC(Oc2ccc(C(=O)NCC(O)CN3CCc4ccccc4C3)cc2)C1 (stereo not shown) [Compound 196] | < 100 | 1000 to 10000
O=C(NC[C@H](O)CN1CCc2ccccc2C1)c1cc(NC2COC2)ncn1 [Compound 166, (S)—N-(3-(3,4-dihydroisoquinolin-2(1H)-yl)-2-hydroxypropyl)-6-(oxetan-3-ylamino)pyrimidine-4-carboxamide] | < 100 | 101 to 1000
O=C(NCC(O)CN1CCc2ccccc2C1)c1ccc(F)c(NC2CCOCC2)c1 (stereo not shown) [Compound 65] | < 100 | 1000 to 10000
CS(=O)(=O)N1CC[C@@H](Nc2cccc(C(=O)NC[C@H](O)CN3CCc4ccccc4C3)c2)C1 [Compound 267] | < 100 | 101 to 1000
CS(=O)(=O)N1CCC(Nc2cc(C(=O)NC[C@H](O)CN3CCc4ccccc4C3)ccn2)CC1 [Compound 225] | < 100 | < 100
O=C(NCC(O)CN1CCc2ccccc2C1)c1cc(NC2CCOCC2)n[nH]1 (stereo not shown) [Compound 169] | 101 to 1000 | 1000 to 10000
O=C(NCC(O)CN1CCc2ccccc2C1)c1cccc(-c2cccnc2)c1 (stereo not shown) [Compound 8, N-(3-(3,4-dihydroisoquinolin-2(1H)-yl)-2-hydroxypropyl)-3-(pyridin-3-yl)benzamide] | < 100 | 1000 to 10000
O=C(NC[C@H](O)CN1CCc2ccccc2C1)c1cnc2ccccc2n1 [Compound 245] | 101 to 1000 | 10000 to 50000
O=C(NCC(O)CN1CCc2ccccc2C1)c1cccc(-c2cc[nH]n2)c1 (stereo not shown) [Compound 10] | 101 to 1000 | 1000 to 10000
Cc1ccc(NC2CCOC2)cc1C(=O)NCC(O)CN1CCc2ccccc2C1 (stereo not shown) [Compound 96] | < 100 | 1000 to 10000
O=C(NC[C@H](O)CN1CCc2ccccc2C1)c1cc(NC2CNC2)ncn1 [Compound 280] | < 100 | 101 to 1000
CC(=O)N1CCC(Oc2ccc(C(=O)NCC(O)CN3CCc4ccccc4C3)cc2)CC1 (stereo not shown) [Compound 107] | < 100 | 101 to 1000
O=C(NC[C@H](O)CN1CCc2ccccc2C1)c1cncc(NC2COC2)c1 [Compound 299] | 101 to 1000 | 10000 to 50000
CC(c1cccc(C(=O)NCC(O)CN2CCc3ccccc3C2)c1)N1CCN(C)CC1 (stereo not shown) [Compound 161] | < 100 | 1000 to 10000
O=C(NCC(O)CN1CCc2ccccc2C1)c1ccc(OC2CCN(CC(F)(F)F)CC2)cc1 (stereo not shown) [Compound 109] | < 100 | 101 to 1000

Further lines, with some results ahead:

EC50 [1] [nM] | Compound | EC50 (Z-138 cell line) [nM]
< 100 | O=C(NCC(O)CN1CCc2ccccc2C1)c1cccc(NC2CCOCC2)c1F (stereo not shown) [Compound 79] | 101 to 1000
< 100 | CCN(c1cccc(C(=O)NCC(O)CN2CCc3ccccc3C2)c1C)C1CCOCC1 (stereo not shown) [Compound 41] | 1000 to 10000
< 100 | O=C(NC[C@H](O)CN1CCc2ccccc2C1)c1ccc2ncccc2c1 [Compound 220] | 101 to 1000
< 100 | CS(=O)(=O)N1CCC(Nc2cccc(C(=O)NC[C@H](O)CN3CCc4ccccc4C3)c2)CC1 [Compound 216] | 101 to 1000
< 100 | C[C@@H]1CC(Nc2cccc(C(=O)NC[C@H](O)CN3CCc4ccccc4C3)c2)CCO1 (stereo partly shown) [Compound 168] | 101 to 1000
< 100 | CN1CCC(Nc2ccc(C(=O)NCC(O)CN3CCc4ccccc4C3)cc2)CC1 (stereo not shown) [Compound 139] | 1000 to 10000
< 100 | O=C(NC[C@H](O)CN1CCc2ccccc2C1)c1cc(NC2CCOCC2)ncn1 [Compound 193] | 101 to 1000
< 100 | O=C(NC[C@H](O)CN1CCc2ccccc2C1)c1ccnc(NC2CCCCC2)c1 [Compound 335] | < 100
< 100 | O=C(NC[C@@H](O)CN1CCc2ccccc2C1)c1ccnc(NC2CCOCC2)c1 [Compound 184] | 1000 to 10000
< 100 | O=C(NCC(O)CN1CCc2ccccc2C1)c1ccc2ncccc2c1 (stereo not shown) [Compound 68] | 1000 to 10000
< 100 | O=C(NC[C@H](O)CN1CCc2ccccc2C1)c1ccnc(NCc2cccnc2)c1 [Compound 190] | 101 to 1000
< 100 | O=C(NC[C@H](O)CN1CCc2ccccc2C1)c1cc(NC2CN(CC(F)(F)F)C2)ncn1 [Compound 282] | 1000 to 10000
< 100 | CS(=O)(=O)N1CCC(Oc2cc(C(=O)NC[C@H](O)CN3CCc4ccccc4C3)ncn2)CC1 [Compound 286] | 1000 to 10000
< 100 | CN1CCC(Nc2cc(C(=O)NC[C@H](O)CN3CCc4ccccc4C3)ccn2)CC1 [Compound 223] | 1000 to 10000
< 100 | CC(=O)N1CCC(Oc2cc(C(=O)NC[C@H](O)CN3CCc4ccccc4C3)ncn2)CC1 [Compound 287] | 101 to 1000
< 100 | O=C(NC[C@H](O)CN1CCc2ccccc2C1)c1cnc2ccccc2c1 [Compound 317] | 101 to 1000
< 100 | O=C(NC[C@H](O)CN1CCc2ccccc2C1)c1ccnc(NC2CCN(CC(F)(F)F)C2)c1 (stereo partly shown) [Compound 226] | 101 to 1000
< 100 | CS(=O)(=O)N1CCC(Nc2cc(C(=O)NC[C@H](O)CN3CCc4ccccc4C3)ncn2)C1 (stereo partly shown) [Compound 257] | 1000 to 10000
< 100 | Cc1c(NC2CCOCC2)ncnc1C(=O)NC[C@H](O)CN1CCc2ccccc2C1 [Compound 231] | 1000 to 10000
< 100 | O=C(NCC(O)CN1CCc2ccccc2C1)c1cccc(NC2CCN(CC(F)(F)F)C2)c1 (stereo not shown) [Compound 102] | 1000 to 10000
